Data published in patent publication US6936736B2, “Amide derivative” (Sumitomo Manufacturing Company Limited, priority 1997, dated 2005).

Tests used:
[1] = test system: constant white light-induced retinal damage; test: Experiment 1: protective effect against constant white light-induced retinal damage (ERG a-wave), intraperitoneal administration; assay type: in vivo, Male Wistar rats; settings: rats, 50 mg/kg intraperitoneally twice, in 0.5% methylcellulose; ERG a-wave amplitude after two days constant light
Description: Retinal outer nuclear cells have been known to be degenerated by the constant white light exposure to albino rats (L. M. Rapp, et al., New York: Plenum, 135 (1980)). Effectiveness of the compounds of formula 1, 2 or 3 or pharmaceutical acceptable salts thereof can be evaluated by their protective action against constant light exposure-induced retinal degeneration in rats. The present invention is embodied by the following experiment.
(§1) Pharmacological Effect Against Constant White Light-induced Retinal Damage
(§2) Male Wistar rats (7 weeks old, Charles River Japan Inc.) were purchased and maintained in cyclic light/dark environment (8:00-20:00/light term) for one week, and then placed within the apparatus for constant white light exposure for two days. The constant white light exposure apparatus is a covered breeding box of 1020 mm in length, 425 mm in width, 520 mm in height, which is made of acryl boards and of which all inner side are covered with mirrors. Light was continuously irradiated all the day long (24 hours) using white fluorescent lamp attached to the ceiling of the apparatus. The average illuminance in the apparatus was 174.2 foot candle. After two days in the apparatus, the rats were moved to a darkroom and dark adapted for 1-4 hours. The rats were anesthetized with pentobarbital and placed in a stereotaxic frame. After topical mydriatica was given and electrodes were put on corneal surface, center of the forehead and the lower part of the lobe, the response in active potential of retina to the flash stimulation with fixed energy was determined from the recorded ERG (electroretinogram). The damage of retina was evaluated by the decrease in the amplitude of ERG a-wave which originated from retinal outer nuclear cells (photoreceptors). Test compounds were intraperitoneally injected just before placing the rats into the constant light exposure apparatus and at the same time on the next day to investigate its protective effect.
According to the experimental procedure described above, each test compound in the present invention, which was suspended or dissolved in 0.5% methylcellulose (MC) solution, was intraperitoneally administered twice to three rats in a group at the dose of 50 mg/kg. In the same way, 0.5% MC solution was intraperitoneally administered to the rats in MC group. The rats maintained in 12 hours cyclic light/dark environment were used for normal control group. The protection by the compounds against the retinal damage was represented as % recovery value, and the results were shown in Table 1. % recovery=(x−z)÷(y−z)×100 • x : a-wave amplitude in test compound group • y : a-wave amplitude in normal control group • z : a-wave amplitude in MC group

[2] = test system: constant white light-induced retinal damage; test: Experiment 2: protective effect against constant white light-induced retinal damage (ERG a-wave), administration of eye drops; assay type: in vivo; settings: rats, 50 μl per once to both eyes, at 0, 3, 6, 9 and 24 hours
Description: as §2, §1
(§3) The protective effect of the compound of Examples by administration of eye drops was tested by the same method as Experiment 1. The tested compounds were administered immediately before rats were placed within the apparatus for constant white light exposure. Further, the eye drops were administered 3, 6, 9 and 24 hours after and the effect was evaluated.
(§4) The compounds of the present invention were dissolved in 0.5% aqueous methylcellulose (MC) solution and each 50 μl of the solution per once was dropped to both eyes of 5 rats, according to the method of Experiment 1. In the same way, 0.5% MC solution was dropped to eyes of the rats in MC group.
The rats maintained in 12 hours cyclic light/dark environment were used for normal control group.

[3] = test system: constant white light-induced retinal damage; test: Experiment 3: protective effect against constant white light-induced retinal damage (ERG a-wave), eye drops, several concentrations; assay type: in vivo; settings: rats, 50 μl per once to both eyes
Description: as §2, §3, §1
The compound of Example 50 was further tested by the same method as Experiment 2.
as §4, with “compound” for “compounds”, “was” for “were”, “group. The rats maintained in 12 hours cyclic light/dark environment were used for normal control group.” for “group.”

## CC(C)(C)NC(=O)c1ccc(F)cc1 [Example 6, N-t-Butyl-4-fluorobenzamide]
[1]
  % recovery (Mean ± S.E.M.): 80.1 ± 8.9%

## CC(C)(C)NC(=O)c1ccc(F)cc1F [Example 1, N-t-Butyl-2,4-difluorobenzamide]
[1]
  % recovery (Mean ± S.E.M.): 95.5 ± 12.3%
[2]; eye drops 2 mg/ml in 0.5% MC
  % recovery (Mean ± S.E.M.): 11.6 ± 2.6%

## CC(C)(C)NC(=O)c1cccc[n+]1[O-] [Example 50, N-t-butyl-1-oxide-2-pyridinecarboxamide]
[2]; eye drops 10 mg/ml in 0.5% MC
  % recovery (Mean ± S.E.M.): 19.1 ± 7.5%
[3]; eye drops 3 mg/ml in 0.5% MC
  % recovery (Mean ± S.E.M.): 2.3 ± 3.8%
[3]; eye drops 10 mg/ml in 0.5% MC
  % recovery (Mean ± S.E.M.): 6.9 ± 5.7%
[3]; eye drops 30 mg/ml in 0.5% MC, ** p < 0.01 vs solvent only (Dunnett)
  % recovery (Mean ± S.E.M.): 17.4 ± 3.9** %
[3]; eye drops 60 mg/ml in 0.5% MC, ** p < 0.01 vs solvent only (Dunnett)
  % recovery (Mean ± S.E.M.): 35.6 ± 2.7** %

## CC(C)(C)NC(=O)c1ccccc1F [Example 48, N-t-butyl-2-fluorobenzamide]
[2]; eye drops 3.2 mg/ml in 0.5% MC
  % recovery (Mean ± S.E.M.): 15.0 ± 3.7%

## CC(C)(C)NC(=O)c1ccc(Br)cc1F [Example 49, N-t-butyl-4-bromo-2-fluorobenzamide]
[2]; eye drops 0.4 mg/ml in 0.5% MC
  % recovery (Mean ± S.E.M.): 5.1 ± 1.8%

## CC(C)(C)NC(=O)c1ccc(Cl)cn1 [Example 40, N-t-Butyl-5-chloro-2-pyridinecarboxamide]
[1]
  % recovery (Mean ± S.E.M.): 82.3 ± 25.6%

## CC(C)(CO)NC(=O)c1ccc(F)cc1F [Example 27, N-(2-Hydroxy-1,1-dimethylethyl)-2,4-difluorobenzamide]
[1]
  % recovery (Mean ± S.E.M.): 45.7 ± 10.1%

## CC(C)(CO)NC(=O)c1ccc(Cl)cn1 [Example 47, N-(2-Hydroxy-1,1-dimethylethyl)-5-chloro-2-pyridinecarboxamide]
[1]
  % recovery (Mean ± S.E.M.): 58.2 ± 2.7%

## CC(C)(C)NC(=O)c1cc(F)ccc1F [Example 25, N-t-Butyl-2,5-difluorobenzamide]
[2]; eye drops 1.2 mg/ml in 0.5% MC
  % recovery (Mean ± S.E.M.): 16.2 ± 3.2%
